Patent US11149008B2, “Sulfamide derivatives and preparation method and use thereof” (HitGen Ltd., priority 2015, dated 2021)

What was measured:
HepG2 cells = test: Cell growth inhibition measurement (CCK-8), HepG2; format: cell-based; details: Homo sapiens, HepG2, 72 h, highest EC50 measured during one or multiple operations, read-out: Inhibition activity against cancer cells, HepG2 (EC50)
Excerpt: (§1) A HepG2 cell strain and an HCT-116 cell strain were purchased from Shanghai Institutes for Biological Sciences; a DMEM high-sugar culture medium and an MEM culture medium were purchased from Hyclone; fetal calf serum was purchased from Gibco; trypsin was purchased from Invitrogen Shanghai; a CCK-8 kit was purchased from Beyotime Institute of Biotechnology; and, the remaining cell culture mediums and other consumables were purchased from Corning China.
(§2) HepG2 cells and HCT-116 cells in the logarithmic growth phase were digested by trypsin. After the counting of uniform cell suspension, the cell density was adjusted as 1500 cells/well by a culture medium containing 10% serum. The cells were re-inoculated to a 96-well cell culture plate, and cultured to a volume of 200 μL at 37° C. in an incubator containing 5% CO2. The cells could be tested after being cultured for 24 h.
(§3) The cells cultured for 24 h were taken out from the incubator. The culture liquid in the well plate was sucked out, and 200 μL of compound solution prepared in the culture medium containing 10% fetal calf serum was added in each well. Five parallel mediums were provided for each concentration, and a DMSO culture medium was used as negative control. The culture mediums were cultured for 72 h at 37° C. in an incubator containing 5% CO2, and CCK-8 detection was performed.
(§4) A serum-free culture medium and CCK-8 solution were prepared, and CCK-8 working solution was prepared at a ratio of 10:1 (this process should be performed in dark place).
(§5) The cells cultured for 72 h were taken out from the incubator. The culture liquid in the well plate was sucked out, and 120 μL of the CCK-8 working solution was added in each well. A well plate without cells was also added with 120 μL of the CCK-8 working solution to serve as blank control. The well plates were cultured for 1 h at 37° C. in an incubator containing 5% CO2 (this process should be performed in dark place).
(§6) The well plates were taken out from the incubator, 100 μL of solution in each well was sucked out and added in a new 96-well plate, and the absorbance was measured at 450 nm (this process should be performed in dark place).
(§7) where Tx is the absorbance of the CCK-8 after the compound acts for 72 h;
(§8) C is the absorbance of the CCK-8 after the negative control wells are cultured for 72 h; and
(§9) B is the absorbance of the CCK-8 in the blank control wells.
(§10) The test results of the compounds prepared according to the embodiments during the measurement are shown in Table 3, wherein the measured highest EC50 of the compounds during one operation or multiple operations is classified according to the following description: […]

HCT-116 cells = test: Cell growth inhibition measurement (CCK-8), HCT-116; format: cell-based; details: Homo sapiens, HCT-116, 72 h, highest EC50 measured during one or multiple operations, read-out: Inhibition activity against cancer cells, HCT-116 (EC50)
Excerpt: as §1, §2, §3, §4, §5, §6, §7, §8, §9, §10

HDAC 1 = HDAC 1 (Homo sapiens, UniProt Q13547); test: Enzyme activity detection of histone deacetylase 1 (fluorogenic substrate deacetylation); format: biochemical; details: 0.28 ng/μL HDAC 1, 10 μM substrate; IC50 class
Excerpt: During the deacetylation detection of a substrate, the HDAC inhibition activity of the compound of the present invention was detected.
C: Enzyme Activity Detection of Histone Deacetylase 1
Acetyl on the substrate was removed by the HDAC 1, so that the substrate was activated, and the developing liquid added subsequently could act on the substrate to release the fluorescent group. The size of the fluorescence signal reflected the activity of the HDAC 1. The IC50 detection method for this enzyme was disclosed in Chuping Xu, Elisabetta Soragni Improved Histone Deacetylase Inhibitors as Therapeutics for the Neurdegenerative Disease Friedreich's Ataxia: A New Synthetic Route. The total reaction system (100 μL/well) contained 0.28 ng/μL of HDAC 1, 10 μM of the substrate and the compound in different concentrations. The fluorescence signal was detected online at Ex/Em=360/460. The inhibition effect of the compound was determined from the obtained data, a concentration response curve was obtained by using the inhibition effect and the concentration of the compound, and the value of IC50 was fitted according to a four-parameter model.
The activities of the compounds prepared in the embodiments against the histone deacetylases 1, 3 and 6 (i.e., HDAC 1, HDAC 3 and HDAC 6) were detected by the above methods, and the test results were shown in Table 2, where the measurements of IC50 of the compounds were classified according to the following description: […]

Sequence of HDAC 1 (Q13547 whole entry, species assumed): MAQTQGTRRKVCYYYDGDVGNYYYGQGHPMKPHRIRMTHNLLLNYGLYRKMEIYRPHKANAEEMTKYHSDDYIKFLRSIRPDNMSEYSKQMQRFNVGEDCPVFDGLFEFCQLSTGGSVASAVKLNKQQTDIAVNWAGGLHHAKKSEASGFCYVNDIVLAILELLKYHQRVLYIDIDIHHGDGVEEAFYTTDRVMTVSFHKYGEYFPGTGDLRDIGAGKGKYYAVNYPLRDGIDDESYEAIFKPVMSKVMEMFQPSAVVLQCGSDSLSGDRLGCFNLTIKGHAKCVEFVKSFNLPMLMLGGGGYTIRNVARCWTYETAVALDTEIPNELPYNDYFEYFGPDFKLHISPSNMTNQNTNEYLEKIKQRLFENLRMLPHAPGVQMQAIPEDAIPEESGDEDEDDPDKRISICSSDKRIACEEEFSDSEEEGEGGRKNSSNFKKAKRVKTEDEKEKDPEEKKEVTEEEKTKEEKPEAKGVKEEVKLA

SMILES | EC50 (HepG2 cells) [nM] | EC50 (HCT-116 cells) [nM] | IC50 (HDAC 1) [nM]
CN(C)CCNC(=O)c1ccc(-c2ccc(S(=O)(=O)N3CC=C(C(=O)NO)CC3)cc2)cc1 [Compound 22, N-hydroxyl-1-((4′-((2-(dimethylamino)ethyl)aminoformyl)-[1,1′-biphenyl]-4-yl)sulfonyl)-1,2,3,6-tetrahydropyridine-4-formamide] | > 100 | – | –
COCCN1CCN(c2ccc(-c3ccc(S(=O)(=O)N4CC=C(C(=O)NO)CC4)cc3)cc2)CC1 [Compound 4, N-hydroxyl-1-((4′-(4-(2-methoxyethyl)piperazine-1-yl)-[1,1′-biphenyl]-4-yl)sulfonyl)-1,2,3,6-tetrahydropyridine-4-formamide] | < 100 | – | –
CN1CCN(Cc2ccc(-c3ccc(S(=O)(=O)N4CC=C(C(=O)NO)CC4)cc3)cc2)CC1 [Compound 20, N-hydroxyl-1-((4′-((4-methylpiperazine-1-yl)methyl)-[1,1′-biphenyl]-4-yl)sulfonyl)-1,2,3,6-tetrahydropyridazole-4-formamide] | < 100 | < 100 | –
CC1CN(c2ccc(-c3ccc(S(=O)(=O)N4CC=C(C(=O)NO)CC4)cc3)cc2)CCN1C (stereo not shown) [Compound 9, N-hydroxyl-1-((4′-(3,4′-dimethylpiperazine-1-yl)-[1,1′-biphenyl]-4-yl)sulfonyl)-1,2,3,6-tetrahydropyridine-4-formamide] | < 100 | – | –
CN1CCN(c2ccc(-c3ccc(S(=O)(=O)N4CC=C(C(=O)NO)CC4)cc3)cc2F)CC1 [Compound 3, N-hydroxyl-1-((3′-fluoro-4′-(4-methylpiperazine-1-yl)-[1,1′-biphenyl]-4-yl)sulfonyl)-1,2,3,6-tetrahydropyridine-4-formamide] | < 100 | – | –
O=C(NO)C1=CCN(S(=O)(=O)c2ccc(-c3ccc(N4CCNCC4)cc3)cc2)CC1 [Compound 10, N-hydroxyl-1-((4′-(piperazine-1-yl)-[1,1′-biphenyl]-4-yl)sulfonyl)-1,2,3,6-tetrahydropyridine-4-formamide] | < 100 | – | –
O=C(NO)C1=CCN(S(=O)(=O)c2ccc(-c3ccc(CN4CCOCC4)cc3)cc2)CC1 [Compound 21, N-hydroxyl-1-((4′-(morpholinylmethyl)-[1,1′-biphenyl]-4-yl)sulfonyl)-1,2,3,6-tetrahydropyridine-4-formamide] | < 100 | < 100 | –
CCN(CC)Cc1ccc(-c2ccc(S(=O)(=O)N3CC=C(C(=O)NO)CC3)cc2)cc1 [Compound 18, N-hydroxyl-1-((4′-((diethylamino)methyl)-[1,1′-biphenyl]-4-yl)sulfonyl)-1,2,3,6-tetrahydropyridine-4-formamide] | < 100 | < 100 | < 100
CN1CCN(c2ccc(-c3ccc(S(=O)(=O)N4C=CC(C(=O)NO)CC4)cc3)cc2)CC1 (stereo not shown) [Compound 15, N-hydroxyl-1-((4′-(4-methylpiperazine-1-yl)-[1, 1′-biphenyl]-4-yl)sulfonyl)-1,2,3,4-tetrahydropyridine-4-formamide] | < 100 | < 100 | < 100
O=C(NO)C1=CCN(S(=O)(=O)c2ccc(-c3ccc(N4CCN(C5CC5)CC4)cc3)cc2)CC1 [Compound 11, N-hydroxyl-1-((4′-(4-cyclopropylpiperazine-1-yl)-[1,1′-biphenyl]-4-yl)sulfonyl)-1,2,3,6-tetrahydropyridine-4-formamide] | < 100 | – | –
COCCN1CCN(c2ccc(-c3ccc(S(=O)(=O)N4CC=C(C(=O)NO)CC4)cc3)cn2)CC1 [Compound 17, N-hydroxyl-1-((4-(6-(4-(2-methoxyethyl)piperazine-1-yl)pyridine-3-yl)phenyl)sulfonyl)-1,2,3,6-tetrahydropyridine-4-formamide] | > 100 | – | –
CN1CCN(c2ccc(-c3ccc(S(=O)(=O)N4CC=C(C(=O)NO)CC4)cc3F)cc2)CC1 [Compound 7, N-hydroxyl-1-((2-fluoro-4′-(4-methylpiperazine-1-yl)-[1,1′-biphenyl]-4-yl)sulfonyl)-1,2,3,6-tetrahydropyridine-4-formamide] | < 100 | < 100 | –
CN1CCC(n2cc(-c3ccc(S(=O)(=O)N4CC=C(C(=O)NO)CC4)cc3)cn2)CC1 [Compound 14, N-hydroxyl-1-((4-(1-(1-methylpiperidine-4-yl)-1H-pyrazol-4-yl)phenyl)sulfonyl)-1,2,3,6-tetrahydropyridine-4-formamide] | > 100 | – | –
CN1CCCN(c2ccc(-c3ccc(S(=O)(=O)N4CC=C(C(=O)NO)CC4)cc3)cn2)CC1 [Compound 24, N-hydroxyl-1-((4-(6-(4-methyl-1,4-diazaheptane-1-yl)pyridine-3-yl)phenyl)sulfonyl)-1,2,3,6-tetrahydropyridine-4-formamide] | < 100 | – | –
CN(C)Cc1ccc(-c2ccc(S(=O)(=O)N3CC=C(C(=O)NO)CC3)cc2)cc1 [Compound 8, N-hydroxyl-1((4′-((dimethylamino)methyl)-[1, 1′-biphenyl]-4-yl)sulfonyl)-1,2,3,6-tetrahydropyridine-4-formamide] | < 100 | < 100 | < 100
CN(C)CCc1ccc(-c2ccc(S(=O)(=O)N3CC=C(C(=O)NO)CC3)cc2)cc1 [Compound 12, N-hydroxyl-1-((4′-(2-(dimethylamino)ethyl)-[1, 1′-biphenyl]-4-yl)sulfonyl)-1,2,3,6-tetrahydropyridine-4-formamide] | < 100 | < 100 | < 100
CN1CCN(c2ccc(-c3ccc(S(=O)(=O)N4CC=C(C(=O)NO)CC4)cn3)cc2)CC1 [Compound 13, N-hydroxyl-1-((6-(4-(4-methylpiperazine-1-yl)phenyl)pyridine-3-yl)sulfonyl)-1,2,3,6-tetrahydropyridine-4-formamide] | < 100 | < 100 | < 100
CN1CCN(c2ccc(-c3ccc(S(=O)(=O)N4CC=C(C(=O)NO)CC4)cc3)cn2)CC1 [Compound 5] | < 100 | – | –
CCN1CCN(c2ccc(-c3ccc(S(=O)(=O)N4CC=C(C(=O)NO)CC4)cc3)cc2)CC1 [Compound 6] | < 100 | < 100 | < 100
